Source: paper PMC12136037, “Type II kinase inhibitors that target Parkinson’s disease–associated LRRK2” (Science Advances, 2025)

Experiments:
Type in all cases: binding
LRRK2^KW = target: T1, LRRK2^KW (Homo sapiens, UniProt Q5S007); assay: DSF thermal stabilization of LRRK2^KW; details: DSF, LRRK2^KW, 10 μM inhibitor
T1 construct: LRRK2 R1847 to E2527; His6-Z-tag (TEV cleavable) (N, cleaved yes); host or cells: Sf9 insect cells (baculovirus)
T1 sequence (Q5S007 1847-2527): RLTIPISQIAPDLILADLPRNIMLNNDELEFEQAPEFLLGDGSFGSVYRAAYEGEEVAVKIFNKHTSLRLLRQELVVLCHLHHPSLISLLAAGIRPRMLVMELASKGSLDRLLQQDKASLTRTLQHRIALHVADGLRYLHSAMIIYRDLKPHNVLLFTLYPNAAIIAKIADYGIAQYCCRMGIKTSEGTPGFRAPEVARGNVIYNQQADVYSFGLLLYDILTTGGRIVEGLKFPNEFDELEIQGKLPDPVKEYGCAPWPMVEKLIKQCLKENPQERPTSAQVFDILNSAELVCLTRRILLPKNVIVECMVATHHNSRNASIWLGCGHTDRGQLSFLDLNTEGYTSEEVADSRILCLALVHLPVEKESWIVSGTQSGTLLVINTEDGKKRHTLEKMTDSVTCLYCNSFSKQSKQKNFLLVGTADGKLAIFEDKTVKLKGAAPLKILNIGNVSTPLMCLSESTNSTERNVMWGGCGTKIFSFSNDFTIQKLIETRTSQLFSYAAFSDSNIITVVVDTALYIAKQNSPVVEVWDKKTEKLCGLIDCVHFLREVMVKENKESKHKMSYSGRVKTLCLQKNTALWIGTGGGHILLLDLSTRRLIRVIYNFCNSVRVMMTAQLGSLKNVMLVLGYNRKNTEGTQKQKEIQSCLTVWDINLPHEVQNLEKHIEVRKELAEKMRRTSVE
How it was run: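 DSF on 4 μM LRRK2^KW in 20 mM Hepes pH 7.4, 150 mM NaCl, 0.5 mM TCEP, 0.5% glycerol, 20 μM GDP, 2.5 mM MgCl2 with SYPRO Orange; inhibitor at 10 μM. Tm was taken as the minimum of the first derivative of fluorescence versus temperature, relative to control.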

[1] = target: T2, ~100 representative kinases (Homo sapiens, UniProt O15075); assay: DSF 100 kinase selectivity screen; details: Protein DCAMKL1; average of three replicates;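 further: compound tested at 20 µM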
T2 construct: Recombinant protein kinase domains with a concentration of 2 μM
T2 sequence (O15075 whole entry, the tested form may be a part): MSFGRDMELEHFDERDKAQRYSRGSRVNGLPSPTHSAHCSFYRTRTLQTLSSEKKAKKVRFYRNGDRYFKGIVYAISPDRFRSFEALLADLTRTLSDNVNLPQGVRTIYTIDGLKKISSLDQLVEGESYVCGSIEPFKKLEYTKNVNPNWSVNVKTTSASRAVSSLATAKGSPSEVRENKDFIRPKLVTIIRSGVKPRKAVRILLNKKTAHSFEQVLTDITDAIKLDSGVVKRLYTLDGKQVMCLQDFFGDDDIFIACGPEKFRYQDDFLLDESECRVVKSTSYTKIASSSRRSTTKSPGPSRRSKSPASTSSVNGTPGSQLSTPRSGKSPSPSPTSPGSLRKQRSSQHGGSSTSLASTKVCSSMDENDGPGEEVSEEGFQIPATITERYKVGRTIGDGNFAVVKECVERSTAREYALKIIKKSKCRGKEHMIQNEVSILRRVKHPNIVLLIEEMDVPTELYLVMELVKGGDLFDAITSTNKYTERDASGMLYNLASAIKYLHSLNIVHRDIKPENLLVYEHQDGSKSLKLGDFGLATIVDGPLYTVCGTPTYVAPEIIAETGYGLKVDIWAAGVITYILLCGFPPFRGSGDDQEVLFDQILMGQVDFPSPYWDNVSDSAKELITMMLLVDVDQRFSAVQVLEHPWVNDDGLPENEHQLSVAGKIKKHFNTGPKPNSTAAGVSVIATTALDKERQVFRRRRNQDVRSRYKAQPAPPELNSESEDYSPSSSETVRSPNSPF
Procedure: (§1) Recombinant protein kinase domains with a concentration of 2 μM were mixed with a 20 μM compound solution in dimethyl sulfoxide (DMSO), 20 mM Hepes (pH 7.5), and 500 mM NaCl. SYPRO Orange (5000×, Invitrogen) was added as a fluorescence probe (1μl/ml). Subsequently, temperature-dependent protein unfolding profiles were measured using the QuantStudio 5 realtime PCR machine (Thermo Fisher Scientific, Waltham, MA, USA). […] The temperature was raised with a step rate of 3°C/min. […] Differences in melting temperature are given as ΔTm values in degrees Celsius. […]

[2] = target: T3, ~100 representative kinases (Homo sapiens, UniProt P11362); assay: DSF 100 kinase selectivity screen; details: protein FGFR1; average of three replicates;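 further: compound tested at 20 µM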
T3 construct: Recombinant protein kinase domains with a concentration of 2 μM
T3 sequence (P11362 22-822): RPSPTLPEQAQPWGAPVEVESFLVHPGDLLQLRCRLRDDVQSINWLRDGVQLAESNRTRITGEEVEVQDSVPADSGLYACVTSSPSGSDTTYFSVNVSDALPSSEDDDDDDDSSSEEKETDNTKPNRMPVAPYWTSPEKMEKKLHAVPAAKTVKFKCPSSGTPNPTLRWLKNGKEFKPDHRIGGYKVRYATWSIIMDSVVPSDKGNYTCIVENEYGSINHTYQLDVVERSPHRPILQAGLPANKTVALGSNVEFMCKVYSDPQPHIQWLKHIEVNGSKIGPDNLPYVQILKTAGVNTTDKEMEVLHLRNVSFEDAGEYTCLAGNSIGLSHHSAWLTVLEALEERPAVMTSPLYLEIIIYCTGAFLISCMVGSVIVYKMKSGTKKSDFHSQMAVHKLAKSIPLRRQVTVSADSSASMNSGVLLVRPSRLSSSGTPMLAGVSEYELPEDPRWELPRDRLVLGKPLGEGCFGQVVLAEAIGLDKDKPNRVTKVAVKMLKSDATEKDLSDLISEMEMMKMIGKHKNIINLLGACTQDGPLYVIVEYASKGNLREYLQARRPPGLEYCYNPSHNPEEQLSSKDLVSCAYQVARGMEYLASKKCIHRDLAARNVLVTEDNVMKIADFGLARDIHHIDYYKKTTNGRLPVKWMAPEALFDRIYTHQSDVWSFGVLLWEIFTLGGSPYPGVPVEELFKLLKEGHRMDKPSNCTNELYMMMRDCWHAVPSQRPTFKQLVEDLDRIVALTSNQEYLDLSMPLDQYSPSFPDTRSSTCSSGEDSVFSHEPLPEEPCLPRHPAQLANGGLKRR
Procedure: as §1

[3] = target: T4, ~100 representative kinases (Homo sapiens, UniProt P24941); assay: DSF 100 kinase selectivity screen; details: Protein CDK2; average of three replicates;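 further: compound tested at 20 µM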
T4 construct: Recombinant protein kinase domains with a concentration of 2 μM
Procedure: as §1

[4] = target: T5, ~100 representative kinases (Homo sapiens, UniProt P28482); assay: DSF 100 kinase selectivity screen; details: protein MAPK1; average of three replicates;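 further: compound tested at 20 µM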
T5 construct: Recombinant protein kinase domains with a concentration of 2 μM
T5 sequence (P28482 whole entry, the tested form may be a part): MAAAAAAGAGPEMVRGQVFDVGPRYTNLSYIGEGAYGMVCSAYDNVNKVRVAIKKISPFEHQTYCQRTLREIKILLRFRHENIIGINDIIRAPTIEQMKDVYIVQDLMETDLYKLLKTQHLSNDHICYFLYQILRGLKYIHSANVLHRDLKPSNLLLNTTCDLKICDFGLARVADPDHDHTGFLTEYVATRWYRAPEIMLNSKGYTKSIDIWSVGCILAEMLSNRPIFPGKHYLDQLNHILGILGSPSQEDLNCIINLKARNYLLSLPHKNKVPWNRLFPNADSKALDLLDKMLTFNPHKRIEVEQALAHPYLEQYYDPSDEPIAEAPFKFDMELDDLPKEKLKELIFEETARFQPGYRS
Procedure: as §1

[5] = target: T6, ~100 representative kinases (Homo sapiens, UniProt P49137); assay: DSF 100 kinase selectivity screen; details: protein MAPKAPK2; average of three replicates;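 further: compound tested at 20 µM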
T6 construct: Recombinant protein kinase domains with a concentration of 2 μM
T6 sequence (P49137 whole entry, the tested form may be a part): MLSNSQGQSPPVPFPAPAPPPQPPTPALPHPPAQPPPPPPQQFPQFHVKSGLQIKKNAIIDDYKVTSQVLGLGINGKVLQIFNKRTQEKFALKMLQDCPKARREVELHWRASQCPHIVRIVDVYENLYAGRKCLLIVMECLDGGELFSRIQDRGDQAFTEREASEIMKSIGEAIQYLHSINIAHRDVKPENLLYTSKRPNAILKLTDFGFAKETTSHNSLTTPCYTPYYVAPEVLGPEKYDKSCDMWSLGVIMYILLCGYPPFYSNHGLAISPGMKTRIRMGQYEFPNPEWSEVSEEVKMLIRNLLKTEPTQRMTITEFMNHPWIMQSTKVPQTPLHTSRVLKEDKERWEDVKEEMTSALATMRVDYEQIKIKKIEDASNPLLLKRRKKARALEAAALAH
Procedure: as §1

[6] = target: T7, ~100 representative kinases (Homo sapiens, UniProt Q96PY6); assay: DSF 100 kinase selectivity screen; details: protein NEK1; average of three replicates;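 further: compound tested at 20 µM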
T7 construct: Recombinant protein kinase domains with a concentration of 2 μM
T7 sequence (Q96PY6 1-1258): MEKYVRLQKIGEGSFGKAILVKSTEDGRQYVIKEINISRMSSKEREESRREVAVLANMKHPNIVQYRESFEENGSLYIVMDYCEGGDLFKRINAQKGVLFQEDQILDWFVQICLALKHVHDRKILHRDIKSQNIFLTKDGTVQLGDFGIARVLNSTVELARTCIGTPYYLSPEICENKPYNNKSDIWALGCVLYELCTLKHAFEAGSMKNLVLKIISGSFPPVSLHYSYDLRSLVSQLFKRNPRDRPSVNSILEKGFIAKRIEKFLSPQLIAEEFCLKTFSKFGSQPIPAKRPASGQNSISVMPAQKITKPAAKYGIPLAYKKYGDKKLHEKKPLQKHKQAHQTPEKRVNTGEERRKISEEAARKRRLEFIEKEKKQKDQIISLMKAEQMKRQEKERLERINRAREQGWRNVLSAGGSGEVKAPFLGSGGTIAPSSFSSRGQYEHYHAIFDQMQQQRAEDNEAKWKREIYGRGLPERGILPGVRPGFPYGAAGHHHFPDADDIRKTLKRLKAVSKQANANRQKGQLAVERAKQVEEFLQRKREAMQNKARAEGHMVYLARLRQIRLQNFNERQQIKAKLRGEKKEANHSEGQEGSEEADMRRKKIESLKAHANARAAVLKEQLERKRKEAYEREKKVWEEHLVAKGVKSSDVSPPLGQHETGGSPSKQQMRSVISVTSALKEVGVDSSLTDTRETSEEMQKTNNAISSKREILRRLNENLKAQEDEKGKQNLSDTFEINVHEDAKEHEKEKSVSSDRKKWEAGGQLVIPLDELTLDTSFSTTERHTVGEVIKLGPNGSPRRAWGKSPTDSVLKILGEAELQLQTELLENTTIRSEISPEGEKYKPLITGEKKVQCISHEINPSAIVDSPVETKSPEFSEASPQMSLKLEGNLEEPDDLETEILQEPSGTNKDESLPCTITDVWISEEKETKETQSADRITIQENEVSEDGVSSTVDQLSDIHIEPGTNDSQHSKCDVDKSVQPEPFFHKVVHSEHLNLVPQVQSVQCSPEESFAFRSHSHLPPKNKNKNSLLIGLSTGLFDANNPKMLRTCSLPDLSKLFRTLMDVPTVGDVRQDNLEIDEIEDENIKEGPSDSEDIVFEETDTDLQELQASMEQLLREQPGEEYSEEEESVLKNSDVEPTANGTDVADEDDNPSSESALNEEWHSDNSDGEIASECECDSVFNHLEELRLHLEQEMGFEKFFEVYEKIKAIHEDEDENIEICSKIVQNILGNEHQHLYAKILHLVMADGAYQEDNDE
Procedure: as §1

[7] = target: T8, ~100 representative kinases (Homo sapiens, UniProt Q9P289); assay: DSF 100 kinase selectivity screen; details: protein MST4; average of three replicates
T8 construct: Recombinant protein kinase domains with a concentration of 2 μM
T8 sequence (Q9P289 whole entry, the tested form may be a part): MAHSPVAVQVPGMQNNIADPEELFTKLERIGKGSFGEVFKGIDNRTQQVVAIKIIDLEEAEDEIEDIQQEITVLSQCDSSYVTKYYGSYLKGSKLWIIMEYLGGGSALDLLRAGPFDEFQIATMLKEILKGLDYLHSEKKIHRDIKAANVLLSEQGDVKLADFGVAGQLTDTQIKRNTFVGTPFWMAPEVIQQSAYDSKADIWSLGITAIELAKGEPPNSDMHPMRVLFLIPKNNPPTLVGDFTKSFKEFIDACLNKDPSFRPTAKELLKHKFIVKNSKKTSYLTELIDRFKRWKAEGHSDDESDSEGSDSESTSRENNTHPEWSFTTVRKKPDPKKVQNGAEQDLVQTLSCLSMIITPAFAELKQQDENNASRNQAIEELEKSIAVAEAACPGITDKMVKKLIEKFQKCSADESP
Procedure: as §1

| ∆Tm (K) (LRRK2^KW) | dTm [1] | dTm [2] | dTm [3] | dTm [4] | dTm [5] | dTm [6] | dTm [7] | SMILES | ∆Tm (K) (LRRK2^KW; listed as 32 (RN341)) | ∆Tm (K) (LRRK2^KW; listed as RN341) |
| --- | --- | --- | --- | --- | --- | --- | --- | --- | --- | --- |
| 9.0 K | 3.61 K | 0.52 K | 3.68 K | -0.0637 K | 0.00186 K | -6.30 K | 1.80 K | O=C(Nc1cccc(-c2c[nH]c3ncnc(N4CCOCC4)c23)c1)C1(C(=O)Nc2cc(Br)c(F)cc2F)CC1 [Compound 25] |  |  |
| 10.2 K | 4.07 K | 0.76 K | 4.12 K | 0.0359 K | 0.07 K | -1.82 K | 3.14 K | O=C(Nc1cc(F)cc(Br)c1)C1(C(=O)Nc2cccc(-c3c[nH]c4ncnc(N5CCOCC5)c34)c2)CC1 [Compound 27] |  |  |
| 13.0 K | 0.57 K | 3.37 K | 7.66 K | -0.49 K | -0.41 K | -0.47 K | 1.45 K | O=C(Nc1cccc(-c2c[nH]c3ncnc(N4CCOCC4)c23)c1)c1cccn(-c2ccc(F)cc2)c1=O [Compound 4] |  |  |
| 12.0 K | 3.75 K | 1.53 K | 5.91 K | 0.30 K | -0.67 K | -1.56 K | 4.41 K | CC(C)(C)c1cccc(NC(=O)C2(C(=O)Nc3cccc(-c4c[nH]c5ncnc(N6CCOCC6)c45)c3)CC2)c1 [Compound 22] |  |  |

| SMILES | ∆Tm (K) (LRRK2^KW) | dTm [1] | dTm [2] | dTm [3] | dTm [4] | dTm [5] | dTm [6] | dTm [7] | ∆Tm (K) (LRRK2^KW; listed as 32 (RN341)) | ∆Tm (K) (LRRK2^KW; listed as RN341) |
| --- | --- | --- | --- | --- | --- | --- | --- | --- | --- | --- |
| CCSc1nc(NC)c2c(-c3cccc(NC(=O)Nc4cc(C(C)(C)C)nn4-c4ccc(C)cc4)c3)c[nH]c2n1 [Compound 32] |  | 0.67 K | 0.60 K | 0.83 K | 0.25 K | 0.11 K | -1.34 K | -2.75 K | 19.9 K | 20 K |
